The values below come from patent US20230126893A1, “[(1,4,5-TRISUBSTITUTED-1H-PYRAZOL-3-YL)SULFANYL]ACETIC ACID DERIVATIVES, SALTS THEREOF, AND USE THEREOF AS ACTIVE HERBICIDAL INGREDIENTS” (BAYER AKTIENGESELLSCHAFT, priority 2020, published 2023).

Each structure is given as a SMILES string.

Holding throughout (type): in vivo
For test [1], the system named is Stellaria media. Kind of test: Post-emergence herbicidal effect against STEME. To be noted: 1280 g/ha, visual assessment about 3 weeks after treatment, 100% = plants have died, 0% = like control plants. A digest of the protocol: (§1)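 Greenhouse-grown weeds in sandy loam, treated at one-leaf stage 2–3 weeks after sowing; compounds as WP or EC sprayed on foliage as aqueous suspension/emulsion at 600–800 l/ha water with 0.2% wetting agent. Visual rating after about 3 weeks versus untreated controls, 0% (like control) to 100% (plants dead).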

The subject of test [2] is Tripleurospermum inodorum. The test can be described thus: Pre-emergence herbicidal effect against MATIN. To be noted: 1280 g/ha, visual score after 3 weeks, 100% = plants have died, 0% = like control plants. The procedure, abridged:
(§2)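 Seeds sown in sandy loam and covered with soil; WP or EC formulations sprayed onto the soil surface as aqueous suspension/emulsion at 600 to 800 L/ha water with 0.2% wetting agent. Greenhouse-grown; damage scored visually after 3 weeks versus untreated controls (0% = like control, 100% = plants dead).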

The test system of test [3] is Alopecurus myosuroides. The test can be described thus: Pre-emergence herbicidal effect against ALOMY. The conditions noted are these: 1280 g/ha, visual score after 3 weeks, 100% = plants have died, 0% = like control plants. The procedure, abridged: as §2
Test [4] relates to Digitaria sanguinalis. Kind of test: Post-emergence herbicidal effect against DIGSA. The conditions noted are these: 1280 g/ha, visual score after about 3 weeks, 100% = plants have died, 0% = like control plants. As to the method:
(§3) [table] 2. Post-emergence herbicidal effect and crop plant compatibility Seeds of monocotyledonous and dicotyledonous weed and crop plants are laid out in sandy loam soil in wood-fibre pots, covered with soil and cultivated in a greenhouse under good growth conditions. 2 to 3 weeks after sowing, the test plants are treated at the one-leaf stage. The compounds of the invention, formulated in the form of wettable powders (WP) or as emulsion concentrates (EC), are then sprayed onto the green parts of the plants as aqueous suspension or emulsion at a water application rate equating to 600 to 800 l/ha with addition of 0.2% wetting agent. After the test plants have been left to stand in the greenhouse under optimal growth conditions for about 3 weeks, the action of the preparations is assessed visually in comparison to untreated controls (herbicidal action in percent (%): 100% activity=the plants have died, 0% activity=like control plants).

The subject of test [5] is Veronica persica. The test can be described thus: Post-emergence herbicidal effect against VERPE. To be noted: 1280 g/ha, visual assessment about 3 weeks after treatment, 100% = plants have died, 0% = like control plants. A digest of the protocol: as §1
The next test deals with Lolium rigidum. The test can be described thus: Pre-emergence herbicidal effect against LOLRI. The conditions noted are these: 1280 g/ha, visual score after 3 weeks, 100% = plants have died, 0% = like control plants. A digest of the protocol:
as §2

In test [6] the test system is Poa annua. Kind of test: Pre-emergence herbicidal effect against POAAN. To be noted: 1280 g/ha, visual score after 3 weeks, 100% = plants have died, 0% = like control plants. A digest of the protocol:
as §2

In test [7] the test system is Stellaria media. The test can be described thus: Pre-emergence herbicidal effect against STEME. The conditions noted are these: 1280 g/ha, visual score after 3 weeks, 100% = plants have died, 0% = like control plants. A digest of the protocol: as §2
The next test concerns Abutylon threophrasti. Kind of test: Post-emergence herbicidal effect against ABUTH. To be noted: 1280 g/ha, visual assessment about 3 weeks after treatment, 100% = plants have died, 0% = like control plants. The procedure, abridged:
as §1

Test [8] has as its system Setaria viridis. Kind of test: Pre-emergence herbicidal effect against SETVI. To be noted: 1280 g/ha, visual score after 3 weeks, 100% = plants have died, 0% = like control plants. The procedure, abridged: as §2
Test [9] relates to Amaranthus retroflexus. Kind of test: Pre-emergence herbicidal effect against AMARE. To be noted: 1280 g/ha, visual score after 3 weeks, 100% = plants have died, 0% = like control plants. The source says: 1. Pre-emergence herbicidal effect and crop plant compatibility Seeds of monocotyledonous and dicotyledonous weed plants and crop plants are laid out in sandy loam soil in wood-fibre pots and covered with soil. The compounds of the invention, formulated in the form of wettable powders (WP) or as emulsion concentrates (EC), are then applied to the surface of the covering soil as aqueous suspension or emulsion at a water application rate equating to 600 to 800 L/ha with addition of 0.2% wetting agent. After the treatment, the pots are placed in a greenhouse and kept under good growth conditions for the trial plants. The damage to the test plants is scored visually after a test period of 3 weeks by comparison with untreated controls (herbicidal activity in percent (%): 100% activity=the plants have died, 0% activity=like control plants). [table]

For test [10], the system named is Veronica persica. The test can be described thus: Pre-emergence herbicidal effect against VERPE. To be noted: 1280 g/ha, visual score after 3 weeks, 100% = plants have died, 0% = like control plants. A digest of the protocol: as §2
The test system of test [11] is Setaria viridis. Kind of test: Post-emergence herbicidal effect against SETVI. To be noted: 1280 g/ha, visual assessment about 3 weeks after treatment, 100% = plants have died, 0% = like control plants. As to the method: as §3
For test [12], the system named is Alopecurus myosuroides. The test can be described thus: Post-emergence herbicidal effect against ALOMY. The conditions noted are these: 1280 g/ha, visual score after about 3 weeks, 100% = plants have died, 0% = like control plants. The procedure, abridged: as §1
The subject of test [13] is Tripleurospermum inodorum. The test can be described thus: Post-emergence herbicidal effect against MATIN. The conditions noted are these: 1280 g/ha, visual assessment about 3 weeks after treatment, 100% = plants have died, 0% = like control plants. A digest of the protocol:
as §1

Test [14] concerns Amaranthus retroflexus. Kind of test: Post-emergence herbicidal effect against AMARE. To be noted: 1280 g/ha, visual assessment about 3 weeks after treatment, 100% = plants have died, 0% = like control plants. As for the experimental part:
as §3

In test [15] the test system is Digitaria sanguinalis. The test can be described thus: Pre-emergence herbicidal effect against DIGSA. The conditions noted are these: 1280 g/ha, visual score after 3 weeks, 100% = plants have died, 0% = like control plants. A digest of the protocol: as §2
Test [16] deals with Echinochloa crus-galli. The test can be described thus: Post-emergence herbicidal effect against ECHCG. To be noted: 1280 g/ha, visual score after about 3 weeks, 100% = plants have died, 0% = like control plants. The procedure, abridged:
as §1

Test [17] concerns Echinochloa crus-galli. The test can be described thus: Pre-emergence herbicidal effect against ECHCG. To be noted: 1280 g/ha, visual score after 3 weeks, 100% = plants have died, 0% = like control plants. A digest of the protocol: as §2
In test [18] the test system is Poa annua. The test can be described thus: Post-emergence herbicidal effect against POAAN. To be noted: 1280 g/ha, visual assessment about 3 weeks after treatment, 100% = plants have died, 0% = like control plants. The procedure, abridged:
as §1

As to `CCOC(=O)CSc1nn(-c2ccccc2F)c(-c2ccc(F)c(F)c2)c1Br` [Example I-002, Ethyl {[4-bromo-5-(3,4-difluorophenyl)-1-(2-fluorophenyl)-1H-pyrazol-3-yl]sulfanyl}acetate], the “Post-emergence action against STEME” value with Stellaria media [1] is 100%. The “Pre-emergence action against MATIN” value in test [2] was 100%. The “Pre-emergence action against ALOMY” value in the test on Alopecurus myosuroides [3] was 90%. In addition, the “Post-emergence action against DIGSA” value with Digitaria sanguinalis [4] is 100%. For the same molecule, the “Post-emergence action against VERPE” value with Veronica persica [5] turned out to be 90%. In addition, in the test with Lolium rigidum, the “Pre-emergence action against LOLRI” value is given as 100%. The “Pre-emergence action against POAAN” value in the test with Poa annua [6] was found to be 100%. In addition, the “Pre-emergence action against STEME” value with Stellaria media [7] was 100%. In addition, in the test with Abutylon threophrasti, the “Post-emergence action against ABUTH” value turned out to be 90%. In addition, the “Pre-emergence action against SETVI” value in the test with Setaria viridis [8] was determined as 100%. Also, the “Pre-emergence action against AMARE” value with Amaranthus retroflexus [9] is recorded as 100%. Also, in the test on Veronica persica [10], the “Pre-emergence action against VERPE” value came to 100%. In addition, the “Post-emergence action against SETVI” value in the test with Setaria viridis [11] was 100%. Also, the “Post-emergence action against ALOMY” value in the test on Alopecurus myosuroides [12] stood at 100%. Further, the “Post-emergence action against MATIN” value in test [13] was found to be 100%. In addition, the “Post-emergence action against AMARE” value in the test on Amaranthus retroflexus [14] was found to be 90%. Moreover, in the test with Digitaria sanguinalis [15], the “Pre-emergence action against DIGSA” value is on record as 90%.

On to `CCOC(=O)CSc1nn(-c2ccccc2F)c(-c2ccc(F)nc2)c1Br` [II-001, Ethyl {[4-bromo-1-(2-fluorophenyl)-5-(6-fluoropyridin-3-yl)-1H-pyrazol-3-yl]sulfanyl}acetate], for which, in the test with Stellaria media [1], the “Post-emergence action against STEME” value stood at 90%. Further, in test [2], the “Pre-emergence action against MATIN” value turned out to be 100%. In addition, the “Pre-emergence action against ALOMY” value in the test with Alopecurus myosuroides [3] amounted to 100%. For the same molecule, the “Post-emergence action against DIGSA” value in the test with Digitaria sanguinalis [4] turned out to be 100%. For the same molecule, the “Post-emergence action against VERPE” value in the test on Veronica persica [5] is 90%. The “Pre-emergence action against LOLRI” value with Lolium rigidum is on record as 100%. The “Pre-emergence action against POAAN” value in the test on Poa annua [6] came out at 100%. Moreover, the “Post-emergence action against ECHCG” value with Echinochloa crus-galli [16] amounted to 100%. For the same molecule, the “Pre-emergence action against STEME” value with Stellaria media [7] was determined as 90%. Moreover, the “Post-emergence action against ABUTH” value in the test on Abutylon threophrasti was determined as 90%. Also, the “Pre-emergence action against SETVI” value with Setaria viridis [8] is on record as 100%. Besides, in the test on Amaranthus retroflexus [9], the “Pre-emergence action against AMARE” value was found to be 100%. The “Pre-emergence action against VERPE” value in the test on Veronica persica [10] amounted to 100%. Moreover, in the test on Setaria viridis [11], the “Post-emergence action against SETVI” value came to 90%. Besides, the “Post-emergence action against ALOMY” value with Alopecurus myosuroides [12] came out at 100%. In the test on Echinochloa crus-galli [17], the “Pre-emergence action against ECHCG” value was found to be 100%. Moreover, the “Post-emergence action against MATIN” value in [13] amounted to 100%. The “Post-emergence action against AMARE” value with Amaranthus retroflexus [14] turned out to be 100%. Moreover, the “Pre-emergence action against DIGSA” value with Digitaria sanguinalis [15] worked out at 100%. Moreover, the “Post-emergence action against POAAN” value with Poa annua [18] is 100%.

Consider `O=C(O)CSc1nn(-c2ccccc2F)c(-c2cncc(Cl)c2)c1Br` [II-008], for which the “Post-emergence action against STEME” value in the test with Stellaria media [1] came to 100%. In addition, in test [2], the “Pre-emergence action against MATIN” value was determined as 100%. In addition, the “Pre-emergence action against ALOMY” value with Alopecurus myosuroides [3] is 100%. Further, the “Post-emergence action against DIGSA” value with Digitaria sanguinalis [4] came out at 100%. The “Post-emergence action against VERPE” value with Veronica persica [5] is reported as 100%. For the same molecule, in the test on Lolium rigidum, the “Pre-emergence action against LOLRI” value was found to be 100%. Moreover, the “Pre-emergence action against POAAN” value in the test on Poa annua [6] was found to be 100%. For the same molecule, in the test on Echinochloa crus-galli [16], the “Post-emergence action against ECHCG” value worked out at 100%. Further, the “Pre-emergence action against STEME” value in the test with Stellaria media [7] is 100%. Further, the “Post-emergence action against ABUTH” value with Abutylon threophrasti was found to be 90%. The “Pre-emergence action against SETVI” value with Setaria viridis [8] turned out to be 100%. Moreover, the “Pre-emergence action against AMARE” value in the test with Amaranthus retroflexus [9] is 100%. In addition, the “Pre-emergence action against VERPE” value with Veronica persica [10] was 100%. The “Post-emergence action against SETVI” value in the test with Setaria viridis [11] was found to be 90%. The “Post-emergence action against ALOMY” value in the test on Alopecurus myosuroides [12] was found to be 100%. Also, the “Pre-emergence action against ECHCG” value with Echinochloa crus-galli [17] was found to be 100%. The “Post-emergence action against MATIN” value in test [13] turned out to be 100%. Moreover, the “Post-emergence action against AMARE” value with Amaranthus retroflexus [14] was found to be 90%. In the test with Digitaria sanguinalis [15], the “Pre-emergence action against DIGSA” value is 100%. The “Post-emergence action against POAAN” value in the test with Poa annua [18] is 100%.
